# System: ARE luciferase activity of 293T cells
# Test: ARE luciferase reporter gene activity in transfected 293T cells (dual-luciferase, anti-oxidation activity)
# Assay type: cell-based
# Conditions: tBHQ 10 μM, 6 h, n = 18, control = 1 ± 0.19, relative luciferase activity
# Description: The 293T cells in the logarithmic growth phase were inoculated in a 96-well cell culture plate at a density of 2×10^5 cells/mL. After the growth density of the cells reached 70%-80%, the ARE and NF-kB luciferase reporter plasmids pGL4.37 and pGL4.32 (100 ng/well) and the […] luciferase reporter plasmid pGL4.75 (10 ng/well) were simultaneously transfected using the PEI (1 mg/mL) transfection reagent and then cultured for 24 h. After 24 h of culture, cells transfected with the ARE luciferase reporter plasmid pGL4.37 were added to tBHQ (10 μM) and each of the sample solutions of the traditional Chinese compositions of the present disclosure with safe concentrations, respectively, a control group was set, and the cells were cultured for 6 h; cells transfected with the NF-kB luciferase reporter plasmid pGL4.32 were added to TNF-α (10 ng/mL)-dexamethasone (10 μM) diluted with a complete medium and each of the sample solutions of the traditional Chinese compositions of the present disclosure with safe concentrations, respectively, a control group and a model group (10 ng/mL TNF-a) were set, and the cells were cultured for 6 h. The supernatant was discarded, the cells were rinsed with PBS, and after the cells were lysed, the cells were detected by a dual-luciferase detection system. Six duplicate wells were set for each experiment, and each experiment was repeated three times. […]
smiles,measurement,value
"CC(C)(C)c1cc(O)ccc1O [tBHQ, tertiary butylhydroquinone]",ARE luciferase activity of 293T cells (x ± SD),6.82 ± 1.28
